Results published in ChEMBL document CHEMBL4190378, “Synthesis and evaluation of new 2-chloro-4-aminopyrimidine and 2,6-dimethyl-4-aminopyrimidine derivatives as tubulin polymerization inhibitors” (Bioorg Med Chem Lett, 2018).

Tests used:
A549 = experiment: Antiproliferative activity against human A549 cells incubated for 48 hrs by MTT assay; assay type: functional, cell-based; details: A549, 48 h
HeLa = experiment: Antiproliferative activity against human HeLa cells incubated for 48 hrs by MTT assay; assay type: functional, cell-based
HCT-116 = experiment: Antiproliferative activity against human HCT116 cells incubated for 48 hrs by MTT assay; assay type: functional, cell-based; details: HCT-116, 48 h
HepG2 = experiment: Antiproliferative activity against human HepG2 cells incubated for 48 hrs by MTT assay; assay type: functional, cell-based; details: HepG2, 48 h
MDA-MB-231 = experiment: Antiproliferative activity against human MDA-MB-231 cells incubated for 48 hrs by MTT assay; assay type: functional, cell-based; details: MDA-MB-231, 48 h
[1] = Inhibition of porcine brain tubulin polymerization measured every 60 secs for 90 mins by DAPI dye based fluorescence assay; parameters: species or system Sus scrofa

Row | Structure (SMILES) | IC50 (A549) [nM] | IC50 (HeLa) [nM] | IC50 (HCT-116) [nM] | IC50 (HepG2) [nM] | IC50 (MDA-MB-231) [nM] | IC50 [1] [nM]
1 | COc1ccc(N(C)c2cc(C)nc(C)n2)cc1Cl | 780 | 316 | 1190 | 787 | 1900 | –
2 | COc1ccc(N(C)c2cc(C)nc(C)n2)cc1F | 632 | 471 | 584 | 2060 | 2780 | –
3 | COc1ccc(N(C)c2ccnc(Cl)n2)cc1 | 611 | 917 | 1460 | 2120 | 2820 | –
4 | Cc1cc(N(C)c2ccc([Se]C#N)cc2)nc(C)n1 | 207 | 252 | 245 | 155 | 614 | –
5 | C[Se]c1ccc(N(C)c2cc(C)nc(C)n2)cc1 | 218 | 138 | 465 | 198 | 321 | –
6 | COc1ccc(N(C)c2ccnc(Cl)n2)cc1OCC[Se]C#N | 463 | 436 | 1220 | 1670 | 2750 | –
7 | COc1ccc(N(C)c2ccnc(Cl)n2)cc1O | 381 | 96 | 422 | 464 | 833 | 6110
8 | COc1ccc(N(C)c2ccnc(Cl)n2)cc1[N+](=O)[O-] | 3780 | 4720 | 4700 | 6120 | 8120 | –
9 | COc1ccc(N(C)c2nc(C)nc3ccccc23)cc1 [VERUBULIN] | 4 | 6 | 5 | – | – | 2740
10 | COc1ccc(N(C)c2ccnc(Cl)n2)cc1OCCCC[Se]C#N | > 10000 | > 10000 | > 10000 | > 10000 | > 10000 | –
11 | COc1ccc(N(C)c2cc(C)nc(C)n2)cc1[N+](=O)[O-] | 3270 | 3720 | 4670 | 2980 | 3440 | –
12 | COc1ccc(N(C)c2ccnc(Cl)n2)cc1OCCC[Se]C#N | 3710 | 4710 | 3920 | 5150 | 1480 | –
13 | COc1ccc(N(C)c2cc(C)nc(C)n2)cc1 | 277 | 322 | 1320 | 824 | 3650 | –

Now from value to molecule:

Row | IC50 (A549) [nM] | IC50 (HeLa) [nM] | IC50 (HCT-116) [nM] | IC50 (HepG2) [nM] | IC50 (MDA-MB-231) [nM] | IC50 [1] [nM] | Structure (SMILES)
14 | 862 | 307 | 1970 | 1240 | 1280 | – | COc1ccc(N(C)c2ccnc(Cl)n2)cc1OCCCBr
15 | 4640 | 3310 | 5670 | 7720 | 6620 | – | COc1ccc(N(C)c2ccnc(Cl)n2)cc1OCCBr
16 | > 10000 | > 10000 | > 10000 | > 10000 | > 10000 | – | COc1ccc(N(C)c2ccnc(Cl)n2)cc1OCCCCC[Se]C#N
17 | 651 | 241 | 914 | 844 | 1280 | – | COc1ccc(N(C)c2ccnc(Cl)n2)cc1F
18 | 591 | 307 | 1140 | 168 | 992 | – | COc1ccc(N(C)c2ccnc(Cl)n2)cc1OCCCCBr
19 | 9720 | 7080 | > 10000 | > 10000 | > 10000 | – | COc1ccc(N(C)c2ccnc(Cl)n2)cc1OCCCCCBr
20 | 621 | 517 | 1170 | 2630 | 1380 | – | COc1ccc(N(C)c2ccnc(Cl)n2)cc1Cl
